Experimental data taken from US20030225001A1, “Preparation of an auricularia auricula polysaccharide and its use in mammals” (priority 2002, published 2003).

Test system: serum lipids (TC, TG, HDL, TC/HDL ratio) in humans
Test: Multicenter double-blind random trial: effect of AP on serum total cholesterol and triglycerides in humans
Assay type: in vivo, human
Excerpt: A multicenter study, based on the Fujian Traditional Chinese Medicine Research Institute protocol, involved 476 patients between November 1994 and August 1996.
The total patient population was approximately 61% male, with the AP group being approximately 60% male and the control group approximately 64% male. Patients in each group were […] and averaged approximately 54-55 years of age. 164 patients had total cholesterol (TC) levels of 6.5-8.0 mmol/L, and 275 patients had triglycerides (TG) levels of 1.6-3.0 mmol/L. 131 patients had low high density lipoprotein (HDL) (<1.04 mmole/L for male, HDL<1.17 mmol/L for female). 201 patients had raised TC/HDL ratios (>5).
Patients with liver, renal and thyroid disease, as well as pregnant women and those who were on medications that could affect serum lipid readings, were excluded. Also excluded were patients who within the last year had had acute myocardial infarction, cerebral vascular diseases, major trauma and/or major surgery, as well as those with severe coronary or renal failure.
All medications were taken 2 times daily for 8 weeks. Although medications were administered by capsules, it should be understood that medications could be administered by tablets, liquids and/or pills as well.

Structure (SMILES): CC(C)OC(=O)C(C)(C)Oc1ccc(C(=O)c2ccc(Cl)cc2)cc1 [FF, Fenofibrate]
- Range of decreases (HDL level) (HDL, start vs end of 8 weeks): 0.18 ± 0.15 mmol/L
- End HDL (after 8 weeks, AP 3 x 200 mg capsules or FF 100 mg tablet, 2 times daily): 1.06 ± 0.27 mmol/L
- Start HDL (baseline, patients with low HDL): 0.88 ± 0.27 mmol/L
- End TC (total cholesterol after 8 weeks, AP 3 x 200 mg capsules or FF 100 mg tablet, 2 times daily): 6.46 ± 1.33 mmol/L
- Start TC (total cholesterol, baseline, patients with raised TC): 7.81 ± 1.38 mmol/L
- End TC (table: Effect of AP on triglyceride (TG) level) (triglyceride table, after 8 weeks, AP 3 x 200 mg capsules or FF 100 mg tablet, 2 times daily): 1.96 ± 1.10 mmol/L
- Start TC (table: Effect of AP on triglyceride (TG) level) (triglyceride table, baseline, patients with raised TG): 2.94 ± 1.38 mmol/L
